Laboratory results from publication PMC6629785, “Synthesis and Pharmacological Evaluation of a Novel Peptide Based on Anemonia sulcata BDS-I Toxin as a New KV3.4 Inhibitor Exerting a Neuroprotective Effect Against Amyloid-β Peptide” (Frontiers in Chemistry, 2019).
Ends that are not written are not given here.

Test system: KV3.4 currents
Assay: Whole-cell patch clamp of KV3.4 currents in NGF-differentiated PC-12 cells, control or exposed to Aβ1−42
Format: cell-based, Rat
Settings: peak of +40 mV pulse, 6 to 10 cells, 3 sessions; for effect on KV3.4 activity in NGF-differentiated PC-12 cells: 100 nM, control condition (no Aβ1−42); for effect on KV3.4 upregulation elicited by Aβ1−42 exposure: peptide 100 nM, 30 min pre-treatment, Aβ1−42 oligomers 5 μM for 24 h
Experimental: Rat pheochromocytoma cells (PC-12 cells) were grown as previously described (Pannaccione et al., [2005], [2007]). For all the experiments, cells were seeded at low density on glass cover-slips coated with poly-L-lysine (50 μg/ml). Differentiation of PC-12 cells was achieved by treatment with neuronal growth factor (NGF) 2.5 S (50 ng/ml) for 7–9 days (Greene and Tischler, [1976]). For electrophysiological experiments, cells were seeded on glass cover-slips and used after 7–9 days of NGF.
Currents from CHO cells were recorded at room temperature 1-2 days after transfection. The extracellular solution contained the following (in mM): 138 NaCl, 5.4 KCl, 2 CaCl2, 1 MgCl2, 10 glucose and 10 HEPES, adjusted pH 7.4 with NaOH. The pipette solution contained (in mM) the following: 140 KCl, 2 MgCl2, 10 EGTA, 10 HEPES, 5 Mg-ATP, adjusted pH 7.4 with KOH (Miceli et al., [2015]). KV3.4 currents were measured by applying voltage steps from −100 mV to +60 mV from a holding potential of −80 mV (Abbott et al., [2001]). Moreover, the total outward K^+ currents were recorded in NGF-differentiated PC-12 cells using the extracellular solution contained the following (in mM): 150 NaCl, 5.4 KCl, 3 CaCl2, 1 MgCl2, 10 HEPES, adjusted pH 7.4 with NaOH. The pipette solution contained the following (in mM): 140 KCl, 2 MgCl2, 10 HEPES, 10 glucose, 10 EGTA, and 1 Mg-ATP adjusted at pH 7.4 with KOH (Diochot et al., [1998]). All experiments were performed in the presence of 50 nM tetrodotoxin (TTX) and 10 μ M nimodipine in the extracellular solution. To discriminate K^+ current components appropriate electrophysiological protocols were used (Pannaccione et al., [2007]). Steady-state activation and inactivation properties were measured by using appropriate protocols (Pannaccione et al., [2005]). […] The capacitance of the membrane was calculated according to the following equation: Cm = τc·Io/ΔEm (1-I∞/Io), where Cm is membrane capacitance, τc is the time constant of the membrane capacitance, Io is the maximum capacitance current value, ΔEm is the amplitude of the voltage step, and I∞ is the amplitude of the steady-state current. K^+ currents were recorded by patch-clamp technique in CHO and NGF-differentiated PC-12 cells using a commercially available amplifier (Axopatch 200B, Molecular Devices) and Digidata 1322A interface (Molecular Devices, USA). […] Data were acquired and analyzed using the pClamp software (version 9, Molecular Devices). […]
The peptide used in our study was synthesized by INBIOS (Pozzuoli, Naples, Italy) using the Aβ1−42 sequence of human APP [UniProtKB-P05067 (A4_HUMAN)]. The purity of the peptide was assessed by high-performance liquid chromatography (>95% pure) and the amino acid composition was verified by mass spectrometry. […]

| Substance | effect on KV3.4 activity in NGF-differentiated PC-12 cells | effect on KV3.4 upregulation elicited by Aβ1−42 exposure |
| --- | --- | --- |
| AAPAFASG [BDS-I[1-8]] | blocked KV3.4 activity | prevented |
| H-GSAFAPAA-OH [BDS-I[1-8scr]] | did not exert any effect | did not counteract |
